Data reported in PubChem BioAssay AID624439 (The Scripps Research Institute Molecular Screening Center, 2012).
Active and inactive are the calls of the source.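 The calls were made as follows: active = compounds with an IC50 below 50 µM against the phosphatase; inactive = IC50 at 50 µM or above.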

Molecular target: Serine/threonine-protein phosphatase 5 (Homo sapiens) (UniProt P53041)
Experiment: PP5c inhibitor potency on phosphohistone, late-stage follow-up, orthogonal assay, biochemical, radiolabeled phosphohistone, dose response, round 5 (AID 624439)
Details: purified PP5c, 33P-phosphohistone dephosphorylation, scintillation

Serine/threonine-protein phosphatase 5 (Homo sapiens), sequence (P53041 whole entry, looked up): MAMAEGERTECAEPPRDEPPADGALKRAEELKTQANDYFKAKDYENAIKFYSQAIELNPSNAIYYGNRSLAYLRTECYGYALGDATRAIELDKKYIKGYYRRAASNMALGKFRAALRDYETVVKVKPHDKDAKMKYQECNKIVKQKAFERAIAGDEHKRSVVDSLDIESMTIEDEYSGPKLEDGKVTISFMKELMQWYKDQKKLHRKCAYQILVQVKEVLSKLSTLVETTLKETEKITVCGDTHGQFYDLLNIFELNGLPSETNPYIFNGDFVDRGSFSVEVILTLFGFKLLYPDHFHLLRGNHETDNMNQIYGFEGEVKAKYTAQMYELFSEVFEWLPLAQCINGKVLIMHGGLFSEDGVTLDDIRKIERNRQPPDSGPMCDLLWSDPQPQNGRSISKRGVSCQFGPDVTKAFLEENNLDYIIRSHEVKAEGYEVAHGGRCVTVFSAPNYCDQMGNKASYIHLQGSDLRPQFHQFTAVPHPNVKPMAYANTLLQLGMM

| IC50 | Structure (SMILES) |
| --- | --- |
| inactive | O=C(O)c1n[nH]nc1-c1ccc(F)cc1 |
| 49 µM | COc1cccc(-c2n[nH]nc2C(=O)O)c1 |
| 42.2 µM | O=C(O)c1n[nH]nc1-c1ccccc1F |
| inactive | O=C(O)c1n[nH]nc1-c1cccc(F)c1 |
| inactive | COc1ccc(-c2n[nH]nc2C(=O)O)cc1 |
| 31.4 µM | O=C(O)c1n[nH]nc1-c1ccccc1O |
| 17.1 µM | CC(C)Oc1ccccc1-c1n[nH]nc1C(=O)O |
| 29.7 µM | COc1ccccc1-c1n[nH]nc1C(=O)O |
